Assay results taken from PubChem BioAssay AID1963848 (Molecular Pharmacology Branch, DTP, NCI, 2024).

System: 379773-124-R-J2-PDC spheroid viability
Test: Anticancer human tumor 379773-124-R-J2-PDC patient-derived endometrial carcinoma cell line growth inhibition [POLQ]
Conditions: spheroids with HUVEC and MSC; for IC50: curve of first compound; for viability, T/C: stronger effect = lower value
Summary of the method: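 Patient-derived tumour cells were co-cultured with HUVEC and mesenchymal stem cells as multicellular spheroids at 37 °C. They were treated with POLQ inhibitors (novobiocin, ART-558, RP6685) alone or combined with other agents. Top concentrations were at or near clinical Cmax (otherwise 10 microM; SN-38 at 1 microM), decreasing in half-log steps.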

[1] = second compound 0.0316 µM, first compound 0.0316 µM
[2] = second compound 0.0316 µM, first compound 0.1 µM
[3] = second compound 0.0316 µM, first compound 0.316 µM
[4] = second compound 0.0316 µM, first compound 1 µM
[5] = second compound 0.0316 µM, first compound 3.16 µM
[6] = second compound 0.0316 µM, first compound 10 µM
[7] = second compound 0.1 µM, first compound 0.0316 µM
[8] = second compound 0.1 µM, first compound 0.1 µM
[9] = second compound 0.1 µM, first compound 0.316 µM
[10] = second compound 0.1 µM, first compound 1 µM
[11] = second compound 0.1 µM, first compound 3.16 µM
[12] = second compound 0.1 µM, first compound 10 µM
[13] = second compound 0.316 µM, first compound 0.0316 µM
[14] = second compound 0.316 µM, first compound 0.1 µM
[15] = second compound 0.316 µM, first compound 0.316 µM
[16] = second compound 0.316 µM, first compound 1 µM
[17] = second compound 0.316 µM, first compound 3.16 µM
[18] = second compound 0.316 µM, first compound 10 µM
[19] = second compound 1 µM, first compound 0.0316 µM
[20] = second compound 1 µM, first compound 0.1 µM
[21] = second compound 1 µM, first compound 0.316 µM
[22] = second compound 1 µM, first compound 1 µM
[23] = second compound 1 µM, first compound 3.16 µM
[24] = second compound 1 µM, first compound 10 µM
[25] = second compound 3.16 µM, first compound 0.0316 µM
[26] = second compound 3.16 µM, first compound 0.1 µM
[27] = second compound 3.16 µM, first compound 0.316 µM
[28] = second compound 3.16 µM, first compound 1 µM
[29] = second compound 3.16 µM, first compound 3.16 µM
[30] = second compound 3.16 µM, first compound 10 µM
[31] = second compound 10 µM, first compound 0.0316 µM
[32] = second compound 10 µM, first compound 0.1 µM
[33] = second compound 10 µM, first compound 0.316 µM
[34] = second compound 10 µM, first compound 1 µM
[35] = second compound 10 µM, first compound 3.16 µM
[36] = second compound 10 µM, first compound 10 µM
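Note: spheroids exposed to drugs for seven days before readout.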
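Throughout, for viability, T/C: percent viability relative to DMSO vehicle control taken as 100%.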

C#Cc1c(F)ccc2cc(O)cc(-c3ncc4c(N5CC6CCC(C5)N6)nc(OCC56CCCN5CC(F)C6)nc4c3F)c12 (stereo not given) + Nc1ccc(C#CCN(C(=O)Cc2ncc(C(F)(F)F)cc2C(F)(F)F)c2ccc(F)cc2)nn1
IC50 (second compound 0.0316 µM): > 10 µM
IC50 (second compound 0.1 µM): > 10 µM
IC50 (second compound 0.316 µM): > 10 µM
IC50 (second compound 1 µM): > 10 µM
IC50 (second compound 3.16 µM): > 10 µM
IC50 (second compound 10 µM): > 10 µM
viability, T/C [1]: 92.3%
viability, T/C [2]: 91.9%
viability, T/C [3]: 95.5%
viability, T/C [4]: 89.1%
viability, T/C [5]: 95.8%
viability, T/C [6]: 101%
viability, T/C [7]: 92.7%
viability, T/C [8]: 110%
viability, T/C [9]: 88.6%
viability, T/C [10]: 98%
viability, T/C [11]: 103%
viability, T/C [12]: 107%
viability, T/C [13]: 91.3%
viability, T/C [14]: 89.3%
viability, T/C [15]: 92.1%
viability, T/C [16]: 94.3%
viability, T/C [17]: 104%
viability, T/C [18]: 111%
viability, T/C [19]: 84.5%
viability, T/C [20]: 97.6%
viability, T/C [21]: 99.9%
viability, T/C [22]: 86.1%
viability, T/C [23]: 106%
viability, T/C [24]: 103%
viability, T/C [25]: 99.3%
viability, T/C [26]: 88.7%
viability, T/C [27]: 105%
viability, T/C [28]: 103%
viability, T/C [29]: 103%
viability, T/C [30]: 104%
viability, T/C [31]: 88.9%
viability, T/C [32]: 88.6%
viability, T/C [33]: 98.5%
viability, T/C [34]: 85.6%
viability, T/C [35]: 91.3%
viability, T/C [36]: 102%

CC1COCCN1c1cc(C2(O)CC3CCC(C2)O3)c2cnn(-c3ccn[nH]3)c2n1 (stereo not given) + Nc1ccc(C#CCN(C(=O)Cc2ncc(C(F)(F)F)cc2C(F)(F)F)c2ccc(F)cc2)nn1
IC50 (second compound 0.0316 µM): 0.128 µM
IC50 (second compound 0.1 µM): 0.104 µM
IC50 (second compound 0.316 µM): 0.121 µM
IC50 (second compound 1 µM): 0.107 µM
IC50 (second compound 3.16 µM): 0.126 µM
IC50 (second compound 10 µM): 0.114 µM
viability, T/C [1]: 110%
viability, T/C [2]: 59.9%
viability, T/C [3]: 13.5%
viability, T/C [4]: 12.8%
viability, T/C [5]: 11.2%
viability, T/C [6]: 4.19%
viability, T/C [7]: 92%
viability, T/C [8]: 51.4%
viability, T/C [9]: 16%
viability, T/C [10]: 14%
viability, T/C [11]: 10.2%
viability, T/C [12]: 3.29%
viability, T/C [13]: 83.2%
viability, T/C [14]: 56.6%
viability, T/C [15]: 16.1%
viability, T/C [16]: 11.8%
viability, T/C [17]: 10.4%
viability, T/C [18]: 4.27%
viability, T/C [19]: 86.9%
viability, T/C [20]: 52.5%
viability, T/C [21]: 16.4%
viability, T/C [22]: 13.6%
viability, T/C [23]: 8.92%
viability, T/C [24]: 3.67%
viability, T/C [25]: 83%
viability, T/C [26]: 59.3%
viability, T/C [27]: 12.5%
viability, T/C [28]: 11.8%
viability, T/C [29]: 9.65%
viability, T/C [30]: 3.56%
viability, T/C [31]: 82.8%
viability, T/C [32]: 54.5%
viability, T/C [33]: 18.5%
viability, T/C [34]: 14.6%
viability, T/C [35]: 9.99%
viability, T/C [36]: 3.04%

CCc1cc2c(N3CCc4c(cc(Cn5ccnc5)cc4-c4cn(C)nc4C(F)(F)F)C3=O)ccnc2c(OC)n1 + Nc1ccc(C#CCN(C(=O)Cc2ncc(C(F)(F)F)cc2C(F)(F)F)c2ccc(F)cc2)nn1
IC50 (second compound 0.0316 µM): > 10 µM
IC50 (second compound 0.1 µM): > 10 µM
IC50 (second compound 0.316 µM): > 10 µM
IC50 (second compound 1 µM): > 10 µM
IC50 (second compound 3.16 µM): > 10 µM
IC50 (second compound 10 µM): > 10 µM
viability, T/C [1]: 83.1%
viability, T/C [2]: 68.2%
viability, T/C [3]: 61.3%
viability, T/C [4]: 59.1%
viability, T/C [5]: 61.6%
viability, T/C [6]: 54.8%
viability, T/C [7]: 65.1%
viability, T/C [8]: 71.1%
viability, T/C [9]: 61.2%
viability, T/C [10]: 62.8%
viability, T/C [11]: 56.2%
viability, T/C [12]: 53.9%
viability, T/C [13]: 74.3%
viability, T/C [14]: 72.3%
viability, T/C [15]: 67%
viability, T/C [16]: 64.8%
viability, T/C [17]: 59.1%
viability, T/C [18]: 49.9%
viability, T/C [19]: 84.5%
viability, T/C [20]: 69%
viability, T/C [21]: 65.2%
viability, T/C [22]: 64.8%
viability, T/C [23]: 56%
viability, T/C [24]: 53.6%
viability, T/C [25]: 71.4%
viability, T/C [26]: 69.7%
viability, T/C [27]: 65.8%
viability, T/C [28]: 70.8%
viability, T/C [29]: 60%
viability, T/C [30]: 52.6%
viability, T/C [31]: 85.4%
viability, T/C [32]: 79.2%
viability, T/C [33]: 61.6%
viability, T/C [34]: 67.5%
viability, T/C [35]: 55%
viability, T/C [36]: 49.6%

COc1cc2cc(C(=O)CCC(=O)O)sc2cc1OC + Nc1ccc(C#CCN(C(=O)Cc2ncc(C(F)(F)F)cc2C(F)(F)F)c2ccc(F)cc2)nn1
IC50 (second compound 0.0316 µM): > 10 µM
IC50 (second compound 0.1 µM): > 10 µM
IC50 (second compound 0.316 µM): > 10 µM
IC50 (second compound 1 µM): > 10 µM
IC50 (second compound 3.16 µM): > 10 µM
IC50 (second compound 10 µM): > 10 µM
viability, T/C [1]: 84.3%
viability, T/C [2]: 97.2%
viability, T/C [3]: 87.6%
viability, T/C [4]: 93.6%
viability, T/C [5]: 93.9%
viability, T/C [6]: 82.7%
viability, T/C [7]: 93.9%
viability, T/C [8]: 86%
viability, T/C [9]: 91.8%
viability, T/C [10]: 85.5%
viability, T/C [11]: 104%
viability, T/C [12]: 92.7%
viability, T/C [13]: 101%
viability, T/C [14]: 82.6%
viability, T/C [15]: 93.7%
viability, T/C [16]: 93.3%
viability, T/C [17]: 85.6%
viability, T/C [18]: 96%
viability, T/C [19]: 94.8%
viability, T/C [20]: 84%
viability, T/C [21]: 96.3%
viability, T/C [22]: 87.8%
viability, T/C [23]: 96.4%
viability, T/C [24]: 85.3%
viability, T/C [25]: 98.9%
viability, T/C [26]: 83.4%
viability, T/C [27]: 82.4%
viability, T/C [28]: 105%
viability, T/C [29]: 90.1%
viability, T/C [30]: 104%
viability, T/C [31]: 96.2%
viability, T/C [32]: 89.6%
viability, T/C [33]: 86.4%
viability, T/C [34]: 89.3%
viability, T/C [35]: 84.9%
viability, T/C [36]: 93.5%

O=C(Nc1ccc(O)c(NS(=O)(=O)c2ccc(F)cc2)c1)c1ccc(-c2ccccc2)cc1 + Nc1ccc(C#CCN(C(=O)Cc2ncc(C(F)(F)F)cc2C(F)(F)F)c2ccc(F)cc2)nn1
IC50 (second compound 0.0316 µM): > 10 µM
IC50 (second compound 0.1 µM): > 10 µM
IC50 (second compound 0.316 µM): > 10 µM
IC50 (second compound 1 µM): > 10 µM
IC50 (second compound 3.16 µM): > 10 µM
IC50 (second compound 10 µM): > 10 µM
viability, T/C [1]: 85%
viability, T/C [2]: 92.1%
viability, T/C [3]: 85.8%
viability, T/C [4]: 91.5%
viability, T/C [5]: 89.8%
viability, T/C [6]: 77.5%
viability, T/C [7]: 89.8%
viability, T/C [8]: 81.8%
viability, T/C [9]: 90.8%
viability, T/C [10]: 82.6%
viability, T/C [11]: 89%
viability, T/C [12]: 79.3%
viability, T/C [13]: 91.9%
viability, T/C [14]: 90.4%
viability, T/C [15]: 84.1%
viability, T/C [16]: 88.7%
viability, T/C [17]: 92.2%
viability, T/C [18]: 79.6%
viability, T/C [19]: 96.6%
viability, T/C [20]: 96.4%
viability, T/C [21]: 89.1%
viability, T/C [22]: 83.2%
viability, T/C [23]: 93.8%
viability, T/C [24]: 81%
viability, T/C [25]: 94.4%
viability, T/C [26]: 86.3%
viability, T/C [27]: 88.8%
viability, T/C [28]: 86.2%
viability, T/C [29]: 86.7%
viability, T/C [30]: 79.4%
viability, T/C [31]: 94.2%
viability, T/C [32]: 87.6%
viability, T/C [33]: 87%
viability, T/C [34]: 85.2%
viability, T/C [35]: 86.5%
viability, T/C [36]: 71.9%
